From patent US20190076440A1, “TREATMENT OF TISSUE DISORDERS” (priority 2016, published 2019)

Experiments:
[1] = test system: Cells carrying a COL4A2 missense mutation; experiment: BIP and ATF6 expression and protein in cells carrying a COL4A2 missense mutation; assay type: cell-based; conditions: 50 μM CBZ, data not shown
Protocol: Cells carrying a COL4A2 missense mutation (which causes haemorrhagic stroke) are treated with 50 μM CBZ. After treatment expression of BIP and ATF 6 are determined by qPCR and mRNA analysis and levels of BIP and ATF6 protein are determined by SDS-PAGE and western blot analysis as previously described herein.

[2] = test system: MCDS mice (homozygous N617K collagen X mutation); experiment: Skeletal measurements by X-ray (hip dysplasia angle, bone growth) in MCDS mice; assay type: in vivo, mouse
Protocol: FIG. 2 illustrates the effect of carbamazepine on the growth plate pathology associated with MCDS. 3 week old MCDS mice were treated with CBZ for a period of one week. Untreated MCDS mice and mice wild-type for collagen X (WT) were used as controls. (a) H+E staining of the tibial growth plate at 4 weeks of age. (b) Immunohistochemistry for Grp78 and (c) Immunohistochemistry for collagen X. Yellow bars show the hypertrophic zone. Scale bars equal to 100 μM in all cases. (d) is a table showing growth plate zone measurements at 4 weeks of age. Mean±SEM. Number of animals shown in brackets. Significance between mutant untreated mice and treated mice shown by the asterisk. (e) Western blots of rib growth plate cartilage at 4 weeks of age for Grp78, ATF4, p62/SQSTM1 and LC3-II alongside the associated coomassie blue stain used as a loading control. Quantification of these blots against the coomassie protein level is shown in supplementary S4. (f) X-ray images of the pelvis at 6 weeks of age. The angle between the lines was measured in a minimum of 5 animals and a graph showing the mean±SEM is shown in (g). Graphs showing the percentage increase in growth of the (h) tibia and (i) femur from 3 weeks of age.
The generation and genotyping of the Col10a1 p.N617K mouse line has been described previously (Rajpar et al 2009). Mice homozygous for the MCDS-causing N617K collagen X mutation were x-rayed at 3 weeks of age and treated with carbamazepine (250 mg/kg/day) for up to 21 days via a subcutaneous implantation of a slow-release pellet (Innovative research of America USA C-113) whilst the mouse was under anaesthetic. The incision was sutured closed, glued using Vetbond tissue adhesive (Santa-Cruz sc-361931) and the mice given an appropriate dose of buprenorphine painkiller depending on their body weight. Male mice were X-rayed once per week in order monitor bone growth; female mice were sacrificed after 1 week of treatment either by cervical dislocation or by carbon dioxide overdose under the provisions of the Animals (Scientific Procedures) Act 1986 and tissues collected for histological analysis. All procedures were carried out according to Home Office regulations.
Mice were anaesthetised using isofluorane, placed on X-Ray hyperfilm (GE healthcare, GZ28906850) and X-Rayed using a Flaxitron X-ray specimen radiography system (Flaxitron MX-20). X-Rays were performed prior to implantation and once per week for a maximum of 3 weeks. The analysis of the skeleton was done using Growbase software (Certus Technology Associated Limited, UK) to calculate the length of the femur, tibia and inner canthal distance. The bone growth rate was determined as a percentage increase relative to measurements at 3 weeks of age. Image J was used to analyse the angle of deflection from the vertical tuberosity of the ischium to determine the severity of the hip dysplasia phenotype. All measurements were analysed by ANOVA to determine significance using GraphPad Prism 6.0 software.

[3] = 3 weeks of treatment, vs untreated

Which ATF6 expression ([1]; qPCR) does the source give for NC(=O)N1c2ccccc2C=Cc2ccccc21 [CBZ, Carbamazepine] here?
The ATF6 expression was “decreased level”.

And the BIP expression ([1]; qPCR)?
Its BIP expression is “decreased level”.

What about the ATF6 protein level ([1]; western blot) of the same compound?
The ATF6 protein level was “decreased level”.

And the BIP protein level ([1]; western blot)?
The BIP protein level was “decreased level”.

What about the “fold increase in the rate of femur bone growth” value [2, 3] of the same compound?
Its value is 1.44 fold.

And the “fold increase in the rate of tibial bone growth” value [2, 3]?
Its value is 1.25 fold.

What about the “% increase in bone length over treatment period, tibia” value ([2]; 3 weeks, mean±SEM, n=6, untreated 25.6±1.3, p<0.05) of the same compound?
The value was 32.7 ±1.6%.

And the “% increase in bone length over treatment period, femur” value ([2]; 3 weeks, mean±SEM, n=6, untreated 27.8±2.3, p<0.05)?
Its value is 40.1±2.0%.

And the “angle of deflection of the ischial tuberosity (hip dysplasia)” value ([2]; CBZ for 3 weeks, 6 weeks of age, untreated MCDS 31.6°, WT 7.7°)?
The value was 25.4 °.
